Key:
Experiment in all cases: KINOMEscan competition binding
Conditions in all cases: compound 10.0 µM
[1] = target: ACVR2A (human) (UniProt P27037)
[2] = target: ACVRL1 (human) (UniProt P37023)
[3] = target: AKT1 (human) (UniProt P31749)
[4] = target: BRSK2 (human) (UniProt Q8IWQ3)
[5] = target: CDC42BPG (human) (UniProt Q6DT37)
[6] = target: CSK (human) (UniProt P41240)
[7] = target: ERBB4 (human) (UniProt Q15303)
[8] = target: FGR (human) (UniProt P09769)
[9] = target: IGF1R (human) (UniProt P08069)
[10] = target: IKBKE (human) (UniProt Q14164)
[11] = target: INSR (human) (UniProt P06213)
[12] = target: JAK1 JH2 pseudokinase (human) (UniProt P23458)
[13] = target: JAK2 JH1 catalytic (human) (UniProt O60674)
[14] = target: JAK3 JH1 catalytic (human) (UniProt P52333)
[15] = target: MAP2K4 (human) (UniProt P45985)
[16] = target: MAPK15 (human) (UniProt Q8TD08)
[17] = target: MAPK6 (human) (UniProt Q16659)
[18] = target: MELK (human) (UniProt Q14680)
[19] = target: MST4 (human) (UniProt Q9P289)
[20] = target: NEK6 (human) (UniProt Q9HC98)
[21] = target: NEK7 (human) (UniProt Q8TDX7)
[22] = target: NTRK1 (human) (UniProt P04629)
[23] = target: NUAK1 (human) (UniProt O60285)
[24] = target: PAK7 (human) (UniProt Q9P286)
[25] = target: PDGFRA (human) (UniProt P16234)
[26] = target: PHKG1 (human) (UniProt Q16816)
[27] = target: PIK3C2B (human) (UniProt O00750)
[28] = target: PIK3CB (human) (UniProt P42338)
[29] = target: PRKCD (human) (UniProt Q05655)
[30] = target: PRKCQ (human) (UniProt Q04759)
[31] = target: PRKG2 (human) (UniProt Q13237)
[32] = target: RAF1 (human) (UniProt P04049)
[33] = target: RIPK2 (human) (UniProt O43353)
[34] = target: STK3 (human) (UniProt Q13188)
[35] = target: STK36 (human) (UniProt Q9NRP7)
[36] = target: TEK (human) (UniProt Q02763)
[37] = target: TLK1 (human) (UniProt Q9UKI8)
[38] = target: TNIK (human) (UniProt Q9UKE5)
[39] = target: WEE1 (human) (UniProt P30291)
[40] = target: ZAP70 (human) (UniProt P43403)

MAPK6 (human), sequence (Q16659 whole entry, looked up): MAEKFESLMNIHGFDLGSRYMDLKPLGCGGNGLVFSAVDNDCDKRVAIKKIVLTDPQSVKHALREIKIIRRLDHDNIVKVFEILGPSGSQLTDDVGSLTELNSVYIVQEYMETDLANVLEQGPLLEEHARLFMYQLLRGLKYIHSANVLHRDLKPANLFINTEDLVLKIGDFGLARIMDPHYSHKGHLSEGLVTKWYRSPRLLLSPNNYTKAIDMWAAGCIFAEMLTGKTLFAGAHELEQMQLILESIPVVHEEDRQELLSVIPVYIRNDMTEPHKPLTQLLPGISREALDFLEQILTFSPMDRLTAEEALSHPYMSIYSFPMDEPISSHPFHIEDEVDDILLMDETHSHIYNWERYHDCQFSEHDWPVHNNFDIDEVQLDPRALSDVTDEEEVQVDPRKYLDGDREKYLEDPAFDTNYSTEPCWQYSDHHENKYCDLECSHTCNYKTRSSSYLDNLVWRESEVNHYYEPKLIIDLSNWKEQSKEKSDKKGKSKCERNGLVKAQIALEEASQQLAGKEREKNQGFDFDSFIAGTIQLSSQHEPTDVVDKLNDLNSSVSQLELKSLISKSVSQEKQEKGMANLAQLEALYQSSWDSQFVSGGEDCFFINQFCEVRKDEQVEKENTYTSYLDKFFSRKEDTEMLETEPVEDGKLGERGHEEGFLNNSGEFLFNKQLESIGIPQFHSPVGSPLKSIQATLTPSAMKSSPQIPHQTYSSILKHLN
MELK (human), sequence (Q14680 whole entry, looked up): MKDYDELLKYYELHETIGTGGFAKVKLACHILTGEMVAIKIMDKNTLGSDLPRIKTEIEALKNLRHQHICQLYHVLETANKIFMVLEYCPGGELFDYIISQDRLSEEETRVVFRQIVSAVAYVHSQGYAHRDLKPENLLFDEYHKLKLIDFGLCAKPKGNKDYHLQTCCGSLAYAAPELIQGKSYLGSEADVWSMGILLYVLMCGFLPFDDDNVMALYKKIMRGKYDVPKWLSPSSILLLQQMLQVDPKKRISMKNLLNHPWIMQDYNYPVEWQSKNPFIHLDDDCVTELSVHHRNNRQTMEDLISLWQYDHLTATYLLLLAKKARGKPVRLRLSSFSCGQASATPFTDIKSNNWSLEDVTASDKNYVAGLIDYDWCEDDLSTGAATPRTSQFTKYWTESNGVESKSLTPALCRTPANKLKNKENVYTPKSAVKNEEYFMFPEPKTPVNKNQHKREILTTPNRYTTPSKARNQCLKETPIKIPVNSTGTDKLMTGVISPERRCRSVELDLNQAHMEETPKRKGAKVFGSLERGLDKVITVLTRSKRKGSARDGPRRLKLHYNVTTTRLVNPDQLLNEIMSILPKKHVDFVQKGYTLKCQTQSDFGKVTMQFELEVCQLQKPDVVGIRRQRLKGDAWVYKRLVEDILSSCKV
JAK1 JH2 pseudokinase (human), sequence (P23458 whole entry, looked up): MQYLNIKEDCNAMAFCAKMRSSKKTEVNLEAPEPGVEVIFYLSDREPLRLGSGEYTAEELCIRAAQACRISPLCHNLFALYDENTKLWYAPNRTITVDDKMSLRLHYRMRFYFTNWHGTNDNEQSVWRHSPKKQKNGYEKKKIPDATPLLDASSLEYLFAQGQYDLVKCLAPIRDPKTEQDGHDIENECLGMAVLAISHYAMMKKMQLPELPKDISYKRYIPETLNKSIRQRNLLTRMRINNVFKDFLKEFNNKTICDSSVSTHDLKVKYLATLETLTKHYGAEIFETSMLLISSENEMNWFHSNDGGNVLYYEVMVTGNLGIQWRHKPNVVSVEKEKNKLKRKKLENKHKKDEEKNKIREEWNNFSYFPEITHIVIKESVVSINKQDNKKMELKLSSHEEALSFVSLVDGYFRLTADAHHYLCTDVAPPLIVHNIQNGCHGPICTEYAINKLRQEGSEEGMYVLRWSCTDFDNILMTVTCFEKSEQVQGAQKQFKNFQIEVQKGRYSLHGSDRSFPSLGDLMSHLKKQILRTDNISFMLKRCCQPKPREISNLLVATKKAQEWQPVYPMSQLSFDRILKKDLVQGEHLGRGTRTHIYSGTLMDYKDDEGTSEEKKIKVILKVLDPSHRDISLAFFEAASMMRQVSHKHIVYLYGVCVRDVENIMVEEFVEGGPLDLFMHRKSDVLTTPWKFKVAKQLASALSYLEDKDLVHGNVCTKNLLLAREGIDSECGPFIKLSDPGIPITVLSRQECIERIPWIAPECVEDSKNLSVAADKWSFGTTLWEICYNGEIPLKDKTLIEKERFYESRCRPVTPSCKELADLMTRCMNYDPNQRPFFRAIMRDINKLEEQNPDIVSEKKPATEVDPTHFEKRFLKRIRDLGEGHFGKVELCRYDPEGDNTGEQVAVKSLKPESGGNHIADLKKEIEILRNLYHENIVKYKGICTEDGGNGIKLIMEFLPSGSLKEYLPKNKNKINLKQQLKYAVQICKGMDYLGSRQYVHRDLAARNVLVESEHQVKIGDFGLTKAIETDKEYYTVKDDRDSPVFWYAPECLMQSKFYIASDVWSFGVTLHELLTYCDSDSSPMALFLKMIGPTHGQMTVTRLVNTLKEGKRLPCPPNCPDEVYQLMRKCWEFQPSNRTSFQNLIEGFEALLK
PHKG1 (human), sequence (Q16816 whole entry, looked up): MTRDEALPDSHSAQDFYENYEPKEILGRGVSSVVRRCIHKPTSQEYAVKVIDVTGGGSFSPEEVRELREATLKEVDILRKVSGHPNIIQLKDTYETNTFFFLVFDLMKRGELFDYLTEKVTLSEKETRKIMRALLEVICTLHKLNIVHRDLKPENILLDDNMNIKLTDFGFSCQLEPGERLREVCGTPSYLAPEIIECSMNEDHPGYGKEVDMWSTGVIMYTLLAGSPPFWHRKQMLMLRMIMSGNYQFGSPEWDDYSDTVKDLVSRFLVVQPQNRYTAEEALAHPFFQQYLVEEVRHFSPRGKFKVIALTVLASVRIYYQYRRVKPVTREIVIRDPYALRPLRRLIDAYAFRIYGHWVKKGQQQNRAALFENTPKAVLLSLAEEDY
TNIK (human), sequence (Q9UKE5 whole entry, looked up): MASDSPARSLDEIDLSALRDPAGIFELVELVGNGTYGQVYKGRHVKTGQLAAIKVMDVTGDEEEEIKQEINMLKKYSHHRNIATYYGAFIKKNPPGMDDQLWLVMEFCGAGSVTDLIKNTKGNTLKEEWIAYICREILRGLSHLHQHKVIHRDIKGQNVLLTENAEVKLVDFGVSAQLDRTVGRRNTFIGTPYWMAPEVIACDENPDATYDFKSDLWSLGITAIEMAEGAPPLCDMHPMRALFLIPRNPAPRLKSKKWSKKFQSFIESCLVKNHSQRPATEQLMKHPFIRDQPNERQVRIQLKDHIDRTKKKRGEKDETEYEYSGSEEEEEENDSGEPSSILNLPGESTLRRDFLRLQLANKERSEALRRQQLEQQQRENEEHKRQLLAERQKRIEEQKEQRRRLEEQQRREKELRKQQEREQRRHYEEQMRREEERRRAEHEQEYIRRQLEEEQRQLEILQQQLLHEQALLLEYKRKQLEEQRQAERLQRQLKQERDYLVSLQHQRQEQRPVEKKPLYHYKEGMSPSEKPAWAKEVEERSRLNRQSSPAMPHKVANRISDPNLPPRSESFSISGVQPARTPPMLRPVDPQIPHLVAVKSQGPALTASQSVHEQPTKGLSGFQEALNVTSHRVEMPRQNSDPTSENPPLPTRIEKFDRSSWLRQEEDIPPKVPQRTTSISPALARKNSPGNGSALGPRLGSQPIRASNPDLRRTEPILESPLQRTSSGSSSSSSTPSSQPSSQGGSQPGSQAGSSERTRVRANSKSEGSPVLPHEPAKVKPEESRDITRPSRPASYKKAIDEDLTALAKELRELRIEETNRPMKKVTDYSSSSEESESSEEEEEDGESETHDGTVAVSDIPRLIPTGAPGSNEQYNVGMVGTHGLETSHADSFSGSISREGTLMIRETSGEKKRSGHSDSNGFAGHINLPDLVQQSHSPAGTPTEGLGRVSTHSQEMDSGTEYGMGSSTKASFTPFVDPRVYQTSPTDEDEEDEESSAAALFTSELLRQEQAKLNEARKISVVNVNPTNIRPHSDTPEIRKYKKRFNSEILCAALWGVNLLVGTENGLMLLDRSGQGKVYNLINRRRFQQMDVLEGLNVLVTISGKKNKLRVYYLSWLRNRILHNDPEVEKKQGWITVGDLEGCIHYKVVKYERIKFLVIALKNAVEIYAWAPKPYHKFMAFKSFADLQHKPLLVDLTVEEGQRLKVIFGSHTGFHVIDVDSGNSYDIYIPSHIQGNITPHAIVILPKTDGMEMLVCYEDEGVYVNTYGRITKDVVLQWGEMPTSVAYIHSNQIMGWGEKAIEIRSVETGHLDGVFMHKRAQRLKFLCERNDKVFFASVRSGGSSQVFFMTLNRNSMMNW
MAP2K4 (human), sequence (P45985 whole entry, looked up): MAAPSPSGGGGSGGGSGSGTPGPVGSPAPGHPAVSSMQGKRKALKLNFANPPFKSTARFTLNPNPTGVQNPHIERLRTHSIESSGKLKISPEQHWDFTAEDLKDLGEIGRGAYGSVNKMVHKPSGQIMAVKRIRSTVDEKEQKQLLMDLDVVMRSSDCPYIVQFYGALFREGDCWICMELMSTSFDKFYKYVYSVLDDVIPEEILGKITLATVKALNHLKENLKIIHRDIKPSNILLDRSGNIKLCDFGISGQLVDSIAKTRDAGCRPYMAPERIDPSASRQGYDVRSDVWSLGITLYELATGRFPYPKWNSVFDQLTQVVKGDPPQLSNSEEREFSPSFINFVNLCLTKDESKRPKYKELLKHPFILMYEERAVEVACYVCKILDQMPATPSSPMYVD
NEK6 (human), sequence (Q9HC98 whole entry, looked up): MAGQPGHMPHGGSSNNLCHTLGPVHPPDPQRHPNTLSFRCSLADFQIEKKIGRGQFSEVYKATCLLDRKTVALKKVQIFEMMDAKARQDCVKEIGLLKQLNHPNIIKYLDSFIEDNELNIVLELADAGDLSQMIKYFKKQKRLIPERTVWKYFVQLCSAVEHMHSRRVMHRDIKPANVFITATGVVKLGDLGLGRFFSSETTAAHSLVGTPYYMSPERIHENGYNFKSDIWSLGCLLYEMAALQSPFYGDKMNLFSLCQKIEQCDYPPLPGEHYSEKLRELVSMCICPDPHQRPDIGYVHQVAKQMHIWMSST

SMILES | kinase still bound, per cent of control [1] [%] | kinase still bound, per cent of control [2] [%] | kinase still bound, per cent of control [3] [%] | kinase still bound, per cent of control [4] [%] | kinase still bound, per cent of control [5] [%] | kinase still bound, per cent of control [6] [%] | kinase still bound, per cent of control [7] [%] | kinase still bound, per cent of control [8] [%] | kinase still bound, per cent of control [9] [%] | kinase still bound, per cent of control [10] [%] | kinase still bound, per cent of control [11] [%] | kinase still bound, per cent of control [12] [%] | kinase still bound, per cent of control [13] [%] | kinase still bound, per cent of control [14] [%] | kinase still bound, per cent of control [15] [%] | kinase still bound, per cent of control [16] [%] | kinase still bound, per cent of control [17] [%] | kinase still bound, per cent of control [18] [%] | kinase still bound, per cent of control [19] [%] | kinase still bound, per cent of control [20] [%] | also measured
OCCCNc1cc(-c2ccnc(Nc3cccc(Cl)c3)n2)ccn1 | 100 | 100 | 100 | 100 | 100 | 100 | 100 | 100 | 100 | 100 | 100 | 100 | 100 | 100 | 100 | 2 | 100 | 100 | 100 | 100 | kinase still bound, per cent of control [21]: 100%; kinase still bound, per cent of control [22]: 100%; kinase still bound, per cent of control [23]: 100%; kinase still bound, per cent of control [24]: 100%; kinase still bound, per cent of control [25]: 100%; kinase still bound, per cent of control [26]: 100%; kinase still bound, per cent of control [27]: 100%; kinase still bound, per cent of control [28]: 100%; kinase still bound, per cent of control [29]: 100%; kinase still bound, per cent of control [30]: 100%; kinase still bound, per cent of control [31]: 100%; kinase still bound, per cent of control [32]: 100%; kinase still bound, per cent of control [33]: 100%; kinase still bound, per cent of control [34]: 100%; kinase still bound, per cent of control [35]: 100%; kinase still bound, per cent of control [36]: 100%; kinase still bound, per cent of control [37]: 100%; kinase still bound, per cent of control [38]: 100%; kinase still bound, per cent of control [39]: 100%; kinase still bound, per cent of control [40]: 100%
Nc1ccc(-c2ccc3ncc4ccc(=O)n(-c5cccc(C(F)(F)F)c5)c4c3c2)cn1 | 95 | 59 | 100 | 100 | 86 | 100 | 100 | 100 | 100 | 89 | 59 | 13 | 64 | 100 | 44 | 18 | 62 | 50 | 73 | 92 | kinase still bound, per cent of control [21]: 82%; kinase still bound, per cent of control [22]: 57%; kinase still bound, per cent of control [23]: 83%; kinase still bound, per cent of control [24]: 69%; kinase still bound, per cent of control [25]: 62%; kinase still bound, per cent of control [26]: 100%; kinase still bound, per cent of control [27]: 37%; kinase still bound, per cent of control [28]: 6.6%; kinase still bound, per cent of control [29]: 88%; kinase still bound, per cent of control [30]: 100%; kinase still bound, per cent of control [31]: 89%; kinase still bound, per cent of control [32]: 100%; kinase still bound, per cent of control [33]: 54%; kinase still bound, per cent of control [34]: 63%; kinase still bound, per cent of control [35]: 99%; kinase still bound, per cent of control [36]: 100%; kinase still bound, per cent of control [37]: 90%; kinase still bound, per cent of control [38]: 68%; kinase still bound, per cent of control [39]: 100%; kinase still bound, per cent of control [40]: 100%
